Several values for one entry are separate records, joined by “and”; a condition that tells them apart may be missing. Equal values may be shown once. Toxic doses and inconclusive results are not listed.
Tested on: BDF1 mice, P388 leukemia ip, median survival T/C
Experiment: NCI In Vivo Anticancer Drug Screen. Data for tumor model P388 Leukemia (intraperitoneal) in B6D2F1 (BDF1) mice
Conditions: endpoint: median survival time, higher = longer survival
Summary of the method: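 Antitumour effect was judged in vivo: survival in drug-treated mice, normalised to that of vehicle-dosed controls, gives the reported T/C.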

[1] = dose: 100.0 mg/kg/injection, schedule: Q01DX009 (ip), vehicle: Klucel (hydroxypropylcellulose) (HPC)
[2] = dose: 100.0 mg/kg/injection, schedule: Q04DX003 (ip), vehicle: Klucel (hydroxypropylcellulose) (HPC)
[3] = dose: 200.0 mg/kg/injection, schedule: Q01DX009 (ip), vehicle: Klucel (hydroxypropylcellulose) (HPC)
[4] = dose: 200.0 mg/kg/injection, schedule: Q04DX003 (ip), vehicle: Klucel (hydroxypropylcellulose) (HPC)
[5] = dose: 400.0 mg/kg/injection, schedule: Q01DX009 (ip), vehicle: Klucel (hydroxypropylcellulose) (HPC)
[6] = dose: 400.0 mg/kg/injection, schedule: Q04DX003 (ip), vehicle: Klucel (hydroxypropylcellulose) (HPC)
[7] = dose: 100.0 mg/kg/injection, schedule: Q01DX009 (ip), vehicle: saline
[8] = dose: 6.25 mg/kg/injection, schedule: Q01DX009 (ip), vehicle: saline with Tween-80
[9] = dose: 12.5 mg/kg/injection, schedule: Q01DX009 (ip), vehicle: saline with Tween-80

Cc1c2oc3c(C)ccc(C(=O)NC4C(=O)NC(C(C)C)C(=O)N5CCCC5C(=O)N(C)CC(=O)N(C)C(C(C)C)C(=O)OC4C)c3nc-2c(C(=O)NC2C(=O)NC(C(C)C)C(=O)N3CCCC3C(=O)N(C)CC(=O)N(C)C(C(C)C)C(=O)OC2C)c(NCCCO)c1=O (centres undefined)
T/C (dose: 0.05 mg/kg/injection, schedule: Q01DX009 (ip), vehicle: saline + alcohol): 150 % of control | T/C (dose: 0.1 mg/kg/injection, schedule: Q01DX009 (ip), vehicle: saline + alcohol): 172 % of control | T/C (dose: 0.2 mg/kg/injection, schedule: Q01DX009 (ip), vehicle: saline + alcohol): 210 % of control | T/C (dose: 0.3 mg/kg/injection, schedule: Q04DX003 (ip), vehicle: saline + alcohol): 169 % of control | T/C (dose: 0.4 mg/kg/injection, schedule: Q01DX009 (ip), vehicle: saline + alcohol): 226 % of control | T/C (dose: 0.6 mg/kg/injection, schedule: Q04DX003 (ip), vehicle: saline + alcohol): 191 % of control | T/C (dose: 0.8 mg/kg/injection, schedule: Q01DX001 (ip), vehicle: saline + alcohol): 153 % of control | T/C (dose: 0.8 mg/kg/injection, schedule: Q01DX009 (ip), vehicle: saline + alcohol): 285 % of control | T/C (dose: 1.2 mg/kg/injection, schedule: Q04DX003 (ip), vehicle: saline + alcohol): 200 % of control | T/C (dose: 2.4 mg/kg/injection, schedule: Q04DX003 (ip), vehicle: saline + alcohol): 261 % of control | T/C (dose: 3.2 mg/kg/injection, schedule: Q01DX001 (ip), vehicle: saline + alcohol): 207 % of control | T/C (dose: 4.8 mg/kg/injection, schedule: Q04DX003 (ip), vehicle: saline + alcohol): 248 % of control | T/C (dose: 6.4 mg/kg/injection, schedule: Q01DX001 (ip), vehicle: saline + alcohol): 198 % of control

CC(=O)[C@H]1CC[C@H]2[C@@H]3CC[C@@H]4C[C@@H](O)CC[C@]4(C)[C@H]3CC[C@]12C
T/C (dose: 163.0 mg/kg/injection, schedule: Q01DX009 (ip), vehicle: saline with Tween-80): 109 % of control | T/C (dose: 325.0 mg/kg/injection, schedule: Q01DX009 (ip), vehicle: saline with Tween-80): 100 % of control

CSCSCC(CO)NS(=O)(=O)c1ccc(C)cc1 (centres undefined)
T/C (dose: 100.0 mg/kg/injection, schedule: Q04DX003 (ip), vehicle: saline with Tween-80): 100 % of control | T/C (dose: 200.0 mg/kg/injection, schedule: Q04DX003 (ip), vehicle: saline with Tween-80): 100 % of control | T/C (dose: 400.0 mg/kg/injection, schedule: Q04DX003 (ip), vehicle: saline with Tween-80): 100 % of control

CCCCCCCCCCCCCCCCS(=O)(=O)N/N=C/C(=O)O
T/C (dose: 12.5 mg/kg/injection, schedule: Q01DX009 (ip), vehicle: other): 116 % of control

COc1ccccc1/C=C/c1ccnc2ccccc12
T/C [1]: 95 % of control | T/C [2]: 110 % of control | T/C [3]: 113 % of control | T/C [4]: 115 % of control | T/C [5]: 122 % of control | T/C [6]: 105 % of control

O=C(NO)c1ccncc1
T/C [7]: 120 % of control | T/C (dose: 100.0 mg/kg/injection, schedule: Q01DX010 (ip), vehicle: water): 90 % of control | T/C (dose: 132.0 mg/kg/injection, schedule: Q01DX009 (ip), vehicle: saline): 118 % of control | T/C (dose: 200.0 mg/kg/injection, schedule: Q01DX006 (ip), vehicle: water): 90 % of control | T/C (dose: 200.0 mg/kg/injection, schedule: Q01DX009 (ip), vehicle: saline): 118 % of control and 120 % of control | T/C (dose: 200.0 mg/kg/injection, schedule: Q01DX010 (ip), vehicle: water): 118 % of control | T/C (dose: 200.0 mg/kg/injection, schedule: Q#A X020 (ip), vehicle: water): 100 % of control | T/C (dose: 222.0 mg/kg/injection, schedule: Q01DX010 (ip), vehicle: water): 113 % of control | T/C (dose: 222.0 mg/kg/injection, schedule: Q02DX005 (ip), vehicle: water): 113 % of control | T/C (dose: 300.0 mg/kg/injection, schedule: Q01DX009 (ip), vehicle: saline): 118 % of control | T/C (dose: 300.0 mg/kg/injection, schedule: Q#A X020 (ip), vehicle: water): 118 % of control | T/C (dose: 335.0 mg/kg/injection, schedule: Q02DX005 (ip), vehicle: water): 109 % of control | T/C (dose: 400.0 mg/kg/injection, schedule: Q01DX006 (ip), vehicle: water): 90 % of control | T/C (dose: 400.0 mg/kg/injection, schedule: Q01DX010 (ip), vehicle: water): 150 % of control | T/C (dose: 500.0 mg/kg/injection, schedule: Q01DX001 (ip), vehicle: water): 109 % of control | T/C (dose: 600.0 mg/kg/injection, schedule: Q01DX006 (ip), vehicle: water): 100 % of control | T/C (dose: 600.0 mg/kg/injection, schedule: Q01DX010 (ip), vehicle: water): 154 % of control | T/C (dose: 750.0 mg/kg/injection, schedule: Q01DX010 (ip), vehicle: water): 154 % of control | T/C (dose: 750.0 mg/kg/injection, schedule: Q02DX005 (ip), vehicle: water): 163 % of control | T/C (dose: 800.0 mg/kg/injection, schedule: Q01DX006 (ip), vehicle: water): 90 % of control | T/C (dose: 1000.0 mg/kg/injection, schedule: Q01DX001 (ip), vehicle: water): 113 % of control | T/C (dose: 1500.0 mg/kg/injection, schedule: Q01DX001 (ip), vehicle: water): 100 % of control

Oc1c(Cl)c(Cl)c(Cl)c2cccnc12
T/C (dose: 3.13 mg/kg/injection, schedule: Q01DX009 (ip), vehicle: saline with Tween-80): 103 % of control | T/C [8]: 106 % of control | T/C [9]: 104 % of control

CC12CCC3c4ccccc4CCC3(CO1)C2 (centres undefined)
T/C [1]: 100 % of control | T/C [2]: 104 % of control | T/C [3]: 100 % of control | T/C [4]: 108 % of control | T/C [5]: 100 % of control | T/C [6]: 100 % of control

Nc1nc(N)c2c(n1)CCCC2
T/C [8]: 100 % of control | T/C [9]: 90 % of control | T/C (dose: 25.0 mg/kg/injection, schedule: Q01DX009 (ip), vehicle: saline with Tween-80): 90 % of control

CNCCSS(=O)(=O)CCNC
T/C (dose: 100.0 mg/kg/injection, schedule: Q01DX005 (ip), vehicle: saline): 94 % of control

COc1ccc(C[C@@H]2NC[C@@H](O)[C@@H]2OC(C)=O)cc1
T/C (dose: 6.25 mg/kg/injection, schedule: Q04DX002 (ip), vehicle: saline with Tween-80): 100 % of control | T/C (dose: 12.5 mg/kg/injection, schedule: Q04DX002 (ip), vehicle: saline with Tween-80): 106 % of control | T/C (dose: 22.0 mg/kg/injection, schedule: Q01DX009 (ip), vehicle: saline): 106 % of control | T/C (dose: 25.0 mg/kg/injection, schedule: Q04DX002 (ip), vehicle: saline with Tween-80): 100 % of control | T/C (dose: 33.0 mg/kg/injection, schedule: Q01DX009 (ip), vehicle: saline with Tween-80): 112 % of control | T/C (dose: 33.0 mg/kg/injection, schedule: Q01DX009 (ip), vehicle: saline): 106 % of control | T/C (dose: 44.0 mg/kg/injection, schedule: Q04DX003 (ip), vehicle: saline): 102 % of control | T/C (dose: 50.0 mg/kg/injection, schedule: Q01DX009 (ip), vehicle: saline with Tween-80): 113 % of control | T/C (dose: 50.0 mg/kg/injection, schedule: Q01DX009 (ip), vehicle: saline): 106 % of control | T/C (dose: 50.0 mg/kg/injection, schedule: Q04DX002 (ip), vehicle: saline with Tween-80): 97 % of control | T/C (dose: 66.0 mg/kg/injection, schedule: Q01DX001 (ip), vehicle: saline): 111 % of control | T/C (dose: 66.0 mg/kg/injection, schedule: Q04DX003 (ip), vehicle: saline): 105 % of control | T/C (dose: 75.0 mg/kg/injection, schedule: Q01DX009 (ip), vehicle: saline with Tween-80): 113 % of control | T/C (dose: 100.0 mg/kg/injection, schedule: Q01DX001 (ip), vehicle: saline): 104 % of control | T/C [7]: 109 % of control | T/C (dose: 100.0 mg/kg/injection, schedule: Q04DX002 (ip), vehicle: saline with Tween-80): 104 % of control | T/C (dose: 100.0 mg/kg/injection, schedule: Q04DX003 (ip), vehicle: saline): 111 % of control | T/C (dose: 113.0 mg/kg/injection, schedule: Q01DX009 (ip), vehicle: saline with Tween-80): 120 % of control | T/C (dose: 150.0 mg/kg/injection, schedule: Q01DX001 (ip), vehicle: saline): 107 % of control | T/C (dose: 150.0 mg/kg/injection, schedule: Q04DX003 (ip), vehicle: saline): 110 % of control | T/C (dose: 169.0 mg/kg/injection, schedule: Q01DX009 (ip), vehicle: saline with Tween-80): 116 % of control | T/C (dose: 225.0 mg/kg/injection, schedule: Q01DX001 (ip), vehicle: saline): 103 % of control | T/C (dose: 225.0 mg/kg/injection, schedule: Q04DX003 (ip), vehicle: saline): 105 % of control | T/C (dose: 338.0 mg/kg/injection, schedule: Q01DX001 (ip), vehicle: saline): 102 % of control

From PubChem BioAssay AID328 (DTP/NCI, 2004)
